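How tested: cells in 96-well plates exposed to compound for 48 hours at five concentrations. GI50 marks 50% less growth. TGI is the concentration that stops growth completely.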
Key:
Test in all cases: inhibition of tumour cell growth, NCI panel, 48 h
[1] = test system: SNB-75 CNS
[2] = test system: CCRF-CEM leukemia
[3] = test system: OVCAR-5 ovarian
[4] = test system: OVCAR-4 ovarian
[5] = test system: HCC-2998 colon
[6] = test system: OVCAR-8 ovarian
[7] = test system: NCI-H460 lung
[8] = test system: ACHN renal
[9] = test system: M14 melanoma
[10] = test system: COLO 205 colon

SMILES	TGI [1] [µM]	TGI [2] [µM]	TGI [3] [µM]	TGI [4] [µM]	TGI [5] [µM]	TGI [6] [µM]	TGI [7] [µM]	TGI [8] [µM]	TGI [9] [µM]	TGI [10] [µM]	GI50 [5] [µM]	GI50 [6] [µM]	GI50 [7] [µM]	GI50 [8] [µM]	GI50 [10] [µM]	GI50 [1] [µM]	GI50 [2] [µM]	GI50 [3] [µM]	GI50 [4] [µM]	GI50 [9] [µM]
CC(C)c1cccc(C(C)C)c1NC(=S)Nc1ccccc1	> 100	> 100	> 100	> 100	> 100	> 100	> 100	> 100	> 100	> 100	–	–	–	–	–	–	–	–	–	–
CCCCCCCCCCCCCCCc1ccc(C(=O)C[n+]2ccccc2)cc1	–	–	–	–	2.55	2.55	1.78	2.22	–	1.67	1.27	1.22	0.546	1.01	0.475	–	–	–	–	–
Nc1cccc2cc(S(=O)(=O)Nc3ccc(C(=O)O)cc3)ccc12	> 100	> 100	> 100	> 100	> 100	> 100	> 100	> 100	> 100	> 100	–	–	–	–	–	–	–	–	–	–
N=C(N)c1ccc(-c2ccc(-c3ccccc3)o2)cc1	3.43	5.03	6.95	4.9	3.15	–	3.65	3.26	3.66	3.42	1.51	–	1.93	1.67	1.66	1.45	2.13	2.11	1.96	1.77
CCN(CC)CCSc1nc2c([N+](=O)[O-])cccc2[nH]1	> 100	> 100	–	> 100	> 100	> 100	–	–	> 100	> 100	–	–	–	–	–	–	–	–	–	–
COc1ccc(C2C(Cl)C(=O)N2NC(=O)c2ccc(NC(C)=O)cc2)cc1OC (configuration not stated)	> 100	> 100	> 100	–	> 100	> 100	> 100	> 100	–	> 100	–	–	–	–	–	–	–	–	–	–
O=C(Nc1ccc(-n2cc(-c3ccncc3)c(-c3ccc(O)c(Cl)c3)n2)cc1)c1ccc(Cl)c(Cl)c1	> 32.5	> 32.5	> 32.5	> 32.5	> 32.5	> 32.5	> 32.5	> 32.5	1.52	> 32.5	2.03	1.74	1.58	1.34	> 32.5	2.64	1.01	> 32.5	2.71	0.668
CSc1nc(NC2OC(CO)C(O)C(O)C2O)c(N)c(=O)n1C (configuration not stated)	> 100	> 100	> 100	> 100	> 100	> 100	> 100	–	–	> 100	–	–	–	–	–	–	–	–	–	–
CC(C)=CCC/C(C)=C/CC/C(C)=C/C(O)c1ccccc1 (configuration not stated)	–	52.4	32.5	> 10	–	40.6	35.3	31.2	32.7	35.6	–	–	–	–	–	–	–	–	–	–
NC(=O)OCc1c(O)c2c(c(O)c1COC(N)=O)C(=O)C=CC2=O	> 100	> 100	> 100	> 100	> 100	> 100	–	> 100	> 100	> 100	–	–	–	–	–	–	–	–	–	–
CNC1=C(C)C(=O)C2=C(C1=O)C(COC(N)=O)C1(OC)C3NC3CN21 (configuration not stated)	0.971	> 100	50.2	25.7	1.82	11	0.251	–	2.01	1.35	–	–	–	–	–	–	–	–	–	–
